Test results reported in EP2818472A1, “Imidazo[4,5-c]pyridine and pyrrolo[3,2-c]pyridine compounds as G-protein-coupled receptor kinase 5 (GRK5) modulators” (Max-Planck-Gesellschaft zur Förderung der Wissenschaften …, priority 2013, dated 2014).

system: beta-TC6 cells; assay: Insulin HTRF assay (relative activity Ar) in beta-TC6 cells; type: cell-based, mouse; conditions: Mus musculus, Beta-TC6, 4 h, insulin HTRF, supernatant of beta-TC6 cells, incubation with test compound at 37°C for 2, 3, 4h; read-out: Ar (relative activity)
How it was run: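 beta-TC6 cells (15k/well, seeded 24 or 48 h) washed, then exposed to compound in induction buffer (0.5% DMSO final) for 2, 3 or 4 h at 37°C.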

Row | SMILES | Emax
1 | COc1ccc(Nc2nccc3[nH]c(-c4cccnc4)cc23)cc1O [Compound 236, 2-methoxy-5-[[2-(3-pyridyl)-1H-pyrrolo[3,2-c]pyridin-4-yl]amino]phenol] | 50 to 100%
2 | COc1cc(Nc2nccc3c2cc(-c2cccnc2)n3C)cc(OC)c1OC [Compound 237, 1-methyl-2-(3-pyridyl)-N-(3,4,5-trimethoxyphenyl)pyrrolo[3,2-c]pyridin-4-amine] | > 100%
3 | COc1ccc(Nc2nccc3c2cc(-c2cccnc2)n3C)cc1OC [Compound 238, N-(3,4-dimethoxyphenyl)-1-methyl-2-(3-pyridyl)pyrrolo[3,2-c]pyridin-4-amine] | 30 to 50%
4 | CN(C)c1cccc(Nc2nccc3c2cc(-c2cccnc2)n3C)c1 [Compound 239, N1,N1-dimethyl-N3-[1-methyl-2-(3-pyridyl)pyrrolo[3,2-c]pyridin-4-yl]benzene-1,3-diamine] | 30 to 50%
5 | COc1ccc(Nc2nccc3c2cc(-c2cccnc2)n3C)c(C)c1 [Compound 240, N-(4-methoxy-2-methyl-phenyl)-1-methyl-2-(3-pyridyl)pyrrolo[3,2-c]pyridin-4-amine] | 0 to 30%
6 | Cc1cccc(Nc2nccc3c2cc(-c2cccnc2)n3C)c1 [Compound 241, 1-methyl-N-(m-tolyl)-2-(3-pyridyl)pyrrolo[3,2-c]pyridin-4-amine] | 0 to 30%
7 | Cn1c(-c2cccnc2)cc2c(Nc3ccc(F)cc3)nccc21 [Compound 242, N-(4-fluorophenyl)-1-methyl-2-(3-pyridyl)pyrrolo[3,2-c]pyridin-4-amine] | 0 to 30%
8 | Cn1c(-c2cccnc2)cc2c(Nc3cccc(NS(C)(=O)=O)c3)nccc21 [Compound 244, N-[3-[[1-methyl-2-(3-pyridyl)pyrrolo[3,2-c]pyridin-4-yl]amino]phenyl]methanesulfonamide] | 50 to 100%
9 | CC(=O)Nc1cccc(Nc2nccc3c2cc(-c2cccnc2)n3C)c1 [Compound 245, N-[3-[[1-methyl-2-(3-pyridyl)pyrrolo[3,2-c]pyridin-4-yl]amino]phenyl]acetamide] | 50 to 100%
10 | Cn1cc(-c2cc3c(Nc4ccc(S(C)(=O)=O)cc4)nccc3[nH]2)cn1 [Compound 246, 2-(1-methylpyrazol-4-yl)-N-(4-methylsulfonylphenyl)-1H-pyrrolo[3,2-c]pyridin-4-amine] | > 100%
11 | Cn1cc(-c2cc3c(Nc4cccnc4)nccc3n2C)cn1 [Compound 247, 1-methyl-2-(1-methylpyrazol-4-yl)-N-(3-pyridyl)pyrrolo[3,2-c]pyridin-4-amine] | > 100%
12 | CC(=O)N(C)c1cccc(-c2cc3c(Nc4ccc(OC(F)(F)F)cc4)nccc3n2C)c1 [Compound 248, N-methyl-N-[3-[1-methyl-4-[4-(trifluoromethoxy)anilino]pyrrolo[3,2-c]pyridin-2-yl]phenyl]acetamide] | 0 to 30%
13 | CC(=O)Nc1ccc(Nc2nccc3[nH]c(-c4ccsc4)cc23)cc1 [Compound 249, N-[4-[[2-(3-thienyl)-1H-pyrrolo[3,2-c]pyridin-4-yl]amino]phenyl]acetamide] | > 100%
14 | NC(=O)c1ccc(Nc2nccc3[nH]c(-c4ccsc4)cc23)cc1 [Compound 250, 4-[[2-(3-thienyl)-1H-pyrrolo[3,2-c]pyridin-4-yl]amino]benzamide] | 50 to 100%
15 | COc1ccc(Nc2nccc3[nH]c(-c4ccsc4)cc23)c(OC)c1 [Compound 251, N-(2,4-dimethoxyphenyl)-2-(3-thienyl)-1H-pyrrolo[3,2-c]pyridin-4-amine] | 30 to 50%
16 | c1cc2[nH]c(-c3ccsc3)cc2c(Nc2ccc3c(c2)OCCO3)n1 [Compound 252, N-(2,3-dihydro-1,4-benzodioxin-6-yl)-2-(3-thienyl)-1H-pyrrolo[3,2-c]pyridin-4-amine] | 50 to 100%
17 | COc1ccc(Nc2nccc3[nH]c(-c4ccsc4)cc23)cc1OC [Compound 253, N-(3,4-dimethoxyphenyl)-2-(3-thienyl)-1H-pyrrolo[3,2-c]pyridin-4-amine] | 50 to 100%

Row | SMILES | Emax
18 | COc1ccc(Nc2nccc3[nH]c(-c4ccsc4)cc23)cn1 [Compound 254, N-(6-methoxy-3-pyridyl)-2-(3-thienyl)-1H-pyrrolo[3,2-c]pyridin-4-amine] | 50 to 100%
19 | c1cncc(Nc2nccc3[nH]c(-c4ccsc4)cc23)c1 [Compound 255, N-(3-pyridyl)-2-(3-thienyl)-1H-pyrrolo[3,2-c]pyridin-4-amine] | 50 to 100%
20 | c1cc2[nH]c(-c3ccsc3)cc2c(Nc2ccc(N3CCOCC3)cc2)n1 [Compound 256, N-(4-morpholinophenyl)-2-(3-thienyl)-1H-pyrrolo[3,2-c]pyridin-4-amine] | 50 to 100%
21 | CN1CCN(c2ccc(Nc3nccc4[nH]c(-c5ccsc5)cc34)cc2)CC1 [Compound 257, N-[4-(4-methylpiperazin-1-yl)phenyl]-2-(3-thienyl)-1H-pyrrolo[3,2-c]pyridin-4-amine] | 30 to 50%
22 | c1cc(Nc2nccc3[nH]c(-c4ccsc4)cc23)ccn1 [Compound 258, N-(4-pyridyl)-2-(3-thienyl)-1H-pyrrolo[3,2-c]pyridin-4-amine] | > 100%
23 | COc1ccc(Nc2nccc3[nH]c(-c4ccsc4)cc23)cc1 [Compound 259, N-(4-methoxyphenyl)-2-(3-thienyl)-1H-pyrrolo[3,2-c]pyridin-4-amine] | 50 to 100%
24 | c1ccc(Nc2nccc3[nH]c(-c4ccsc4)cc23)nc1 [Compound 260, N-(2-pyridyl)-2-(3-thienyl)-1H-pyrrolo[3,2-c]pyridin-4-amine] | 50 to 100%
25 | COC(=O)c1ccc(Nc2nccc3[nH]c(-c4ccsc4)cc23)cc1 [Compound 261, methyl 4-[[2-(3-thienyl)-1H-pyrrolo[3,2-c]pyridin-4-yl]amino]benzoate] | 0 to 30%
26 | CS(=O)(=O)c1cccc(Nc2nccc3[nH]c(-c4ccsc4)cc23)c1 [Compound 262, N-(3-methylsulfonylphenyl)-2-(3-thienyl)-1H-pyrrolo[3,2-c]pyridin-4-amine] | 50 to 100%
27 | c1cc2[nH]c(-c3ccsc3)cc2c(Nc2ccc3c(c2)OCO3)n1 [Compound 263, N-(1,3-benzodioxol-5-yl)-2-(3-thienyl)-1H-pyrrolo[3,2-c]pyridin-4-amine] | 50 to 100%
28 | Oc1cccc(Nc2nccc3[nH]c(-c4ccsc4)cc23)c1 [Compound 264, 3-[[2-(3-thienyl)-1H-pyrrolo[3,2-c]pyridin-4-yl]amino]phenol] | 30 to 50%
29 | CS(=O)(=O)Nc1cccc(Nc2nccc3[nH]c(-c4ccsc4)cc23)c1 [Compound 265, N-[3-[[2-(3-thienyl)-1H-pyrrolo[3,2-c]pyridin-4-yl]amino]phenyl]methanesulfonamide] | 50 to 100%
30 | CC(=O)Nc1cccc(Nc2nccc3[nH]c(-c4ccsc4)cc23)c1 [Compound 266, N-[3-[[2-(3-thienyl)-1H-pyrrolo[3,2-c]pyridin-4-yl]amino]phenyl]acetamide] | 50 to 100%
31 | CC(=O)c1cccc(Nc2nccc3[nH]c(-c4ccsc4)cc23)c1 [Compound 267, 1-[3-[[2-(3-thienyl)-1H-pyrrolo[3,2-c]pyridin-4-yl]amino]phenyl]ethanone] | 50 to 100%
32 | CS(=O)(=O)c1ccc(Nc2nccc3[nH]c(-c4ccsc4)cc23)cc1 [Compound 268, N-(4-methylsulfonylphenyl)-2-(3-thienyl)-1H-pyrrolo[3,2-c]pyridin-4-amine] | 50 to 100%
33 | CC(C)Oc1ccc(Nc2nccc3[nH]c(-c4ccsc4)cc23)cc1 [Compound 269, N-(4-isopropoxyphenyl)-2-(3-thienyl)-1H-pyrrolo[3,2-c]pyridin-4-amine] | 0 to 30%
